Results on one molecule are retold here after patent US4111955A, “N-Trihalomethanesulfenyl carbamoyloximino di-sulfur heterocyclic compounds” (priority 1976, dated 1978).

In assay [1] the test system is bean aphid (Aphis fabae Scop.). As to the kind of experiment: Bean Aphid Foliage Spray Test. The assay is classed as in vivo. Also on record: key to pesticidal activity rating, Aphid: A: excellent control; B: partial control; C: no control. The procedure:
Adults and nymphal stages of the bean aphid (Aphis fabae Scop.) reared on potted dwarf nasturtium plants at 65°-70° F. and 50-70 percent relative humidity, constituted the test insects. For testing purposes, the number of aphids per pot was standardized to 100-150 by trimming plants containing excess aphids.
The test compounds were formulated by diluting the stock suspension with water to give a suspension containing 500 parts of test compound per million parts of final formulation.
The potted plants (one pot per compound tested) infested with 100-150 aphids, were placed on a revolving turntable and sprayed with 100-110 milliliters of test compound formulation by use of a DeVilbiss spray gun set at 40 psig. air pressure. This application, which lasted 25 seconds, was sufficient to wet the plants to run-off. As a control, 100-110 milliliters of a water-acetone-emulsifier solution containing no test compound were also sprayed on infested plants. After spraying, the pots were placed on their sides on a sheet of white standard mimeograph paper which had been previously ruled to facilitate counting. Temperature and humidity in the test room during the 24 hour holding period were 65°-70° F. and 50-70 percent, respectively. Aphids which fell onto the paper and were unable to remain standing after being uprighted were considered dead. Aphids remaining on the plants were observed closely for movement and those which were unable to move the length of the body upon stimulation by prodding were considered dead. Percent mortality was recorded for various concentration levels.
(§1) In these tests the pesticidal activity of the compounds against aphid, mite, Southern Armyworm, Bean Beetle and House fly was rated as follows:
(§2) The LD50 values shown in the above Table II were determined by testing the compositions over an appropriate concentration range obtained by serial dilution of the stock suspension with water. The percent kill was plotted on log-probit graph paper versus parts per million concentration, and the LD50 read from an eye-fitted line drawn through the resultant points.

In assay [2] the test system is southern armyworm (Prodenia eridania, (Cram.)). Briefly: Southern Armyworm Leaf Spray Test. Set-up: key to pesticidal activity rating, Armyworm: A: excellent control; B: partial control; C: no control. Type of assay: in vivo. The procedure:
Larvae of the southern armyworm (Prodenia eridania, (Cram.)), reared on Tendergreen bean plants at a temperature of 80°±5° F. and a relative humidity of 50±5 percent, constituted the test insects.
The test compounds were formulated by diluting the stock suspension with water to give a suspension containing 500 parts of test compound per million parts of final formulation. Potted Tendergreen bean plants of standard height and age were placed on a revolving turntable and sprayed with 100-110 milliliters of test compound formulation by use of a DeVilbiss spray gun set at 10 psig air pressure. This application, which lasted 25 seconds, was sufficient to wet plants to run-off. As a control, 100-110 milliliters of a water-acetone-emulsifier solution containing no test compound were also sprayed on infested plants. When dry, the paired leaves were separated and each one was placed in a 9 centimeter Petri dish lined with moistened filter paper. Five randomly selected larvae were introduced into each dish and the dishes were closed. The closed dishes were labeled and held at 80°-85° F. for 3 days. Although the larvae could easily consume the whole leaf within 24 hours, no more food was added. Larvae which were unable to move the length of the body, even upon stimulation by prodding, were considered dead. Percent mortality was recorded for various concentration levels.
as §1, §2

Values after ≈ are worked out from the molar mass of the structure shown.

As for `CN(SC(Cl)(Cl)Cl)C(=O)ON=C1CSCCS1` [2-[(N-METHYL-N-TRICHLOROMETHANESULFENYL)-CARBAMOYLOXIMINO]-1,4-DITHIANE], the “pesticidal activity rating, Aphid” value in assay [1] (500 parts per million, 24 hour) is listed as “A”. Also, the LC50 stood at 13 µg/mL (≈ 36.5 µM) in assay [1] (Aphis fabae, foliar, 24 h, Table II, read-out: Insect Toxicity, LD50, Aphid) and 52 µg/mL (≈ 146 µM) in assay [2] (Spodoptera eridania, 72 h, Table II, read-out: Insect Toxicity, LD50, Armyworm). In assay [2] (500 parts per million, 3 days), the “pesticidal activity rating, Armyworm” value is listed as “A”.
